Laboratory results reported in the NIST ThermoML archive (doi:10.1021/je3009304).

Details: Liquid

C=C(F)C(F)(F)F [2,3,3,3-tetrafluoro-1-propene]
Details	mass density [kg/m3]
217.44 K, 14681 kPa, isochoric method	1363.7
218.27 K, 962.6 kPa, isochoric method	1333.8
219.23 K, 2020.3 kPa, isochoric method	1333.7
220.22 K, 3106.5 kPa, isochoric method	1333.6
221.18 K, 4140.3 kPa, isochoric method	1333.5
221.97 K, 20077 kPa, isochoric method	1363.2
222.06 K, 5097 kPa, isochoric method	1333.4
226.65 K, 10087 kPa, isochoric method	1332.9
226.93 K, 25988 kPa, isochoric method	1362.7
230.27 K, 29902 kPa, isochoric method	1362.4
231.25 K, 15017 kPa, isochoric method	1332.4
231.72 K, 1001.1 kPa, isochoric method	1298.5
232.84 K, 2093.9 kPa, isochoric method	1298.4
233.76 K, 2987 kPa, isochoric method	1298.2
234.77 K, 35121 kPa, isochoric method	1361.9
234.92 K, 4113.3 kPa, isochoric method	1298.2
236.02 K, 20027 kPa, isochoric method	1332
236.13 K, 5205.1 kPa, isochoric method	1298
240.49 K, 24777 kPa, isochoric method	1331.5
241.06 K, 10038 kPa, isochoric method	1297.5
245.59 K, 30165 kPa, isochoric method	1331
246.22 K, 14993 kPa, isochoric method	1297.1
250.28 K, 35113 kPa, isochoric method	1330.6
251.43 K, 19983 kPa, isochoric method	1296.6
251.62 K, 971.2 kPa, isochoric method	1243.5
252.83 K, 1949.3 kPa, isochoric method	1243.4
254.25 K, 3101.8 kPa, isochoric method	1243.3
254.96 K, 39964 kPa, isochoric method	1330.1
255.48 K, 4096.7 kPa, isochoric method	1243.2
256.7 K, 5077.8 kPa, isochoric method	1243.1
256.72 K, 25008 kPa, isochoric method	1296.1
261.89 K, 29860 kPa, isochoric method	1295.6
262.98 K, 10262 kPa, isochoric method	1242.5
267.49 K, 35084 kPa, isochoric method	1295.1
269.01 K, 15092 kPa, isochoric method	1242
269.39 K, 1033.4 kPa, isochoric method	1191.1
270.88 K, 2044.5 kPa, isochoric method	1190.9
272.34 K, 3041.1 kPa, isochoric method	1190.8
272.52 K, 39731 kPa, isochoric method	1294.7
273.79 K, 4025.5 kPa, isochoric method	1190.7
275.28 K, 5036.3 kPa, isochoric method	1190.6
275.31 K, 20033 kPa, isochoric method	1241.4
282.03 K, 25427 kPa, isochoric method	1240.8
282.83 K, 10183 kPa, isochoric method	1189.9
282.95 K, 1036 kPa, isochoric method	1147.5
284.62 K, 2015.3 kPa, isochoric method	1147.4
286.31 K, 3030.5 kPa, isochoric method	1147.2
287.71 K, 29892 kPa, isochoric method	1240.4
287.89 K, 3962.5 kPa, isochoric method	1147.1
289.95 K, 15007 kPa, isochoric method	1189.4
289.99 K, 5188 kPa, isochoric method	1146.9
294.1 K, 34879 kPa, isochoric method	1239.8
297.11 K, 19748 kPa, isochoric method	1188.8
297.15 K, 1034.7 kPa, isochoric method	1097.2
298.15 K, 2000 kPa, Pycnometric method	1101.34
298.15 K, 9991.7 kPa, isochoric method	1146.3
299.15 K, 2029.1 kPa, isochoric method	1097.1
300.61 K, 39892 kPa, isochoric method	1239.3
301.16 K, 3031.3 kPa, isochoric method	1096.9
303.02 K, 3977.9 kPa, isochoric method	1096.8
304.9 K, 24929 kPa, isochoric method	1188.2
305.47 K, 5182.3 kPa, isochoric method	1096.6
306.32 K, 14776 kPa, isochoric method	1145.7
312.45 K, 29920 kPa, isochoric method	1187.5
315.08 K, 9982 kPa, isochoric method	1095.9
315.09 K, 19876 kPa, isochoric method	1145
315.95 K, 2247.5 kPa, isochoric method	1032.9
317.45 K, 2859.3 kPa, isochoric method	1032.8
320.1 K, 34906 kPa, isochoric method	1187
320.32 K, 4014.4 kPa, isochoric method	1032.6
322.67 K, 4967.1 kPa, isochoric method	1032.4
323.87 K, 24958 kPa, isochoric method	1144.4
325.07 K, 14981 kPa, isochoric method	1095.2
325.16 K, 5973.9 kPa, isochoric method	1032.3
327.9 K, 39962 kPa, isochoric method	1186.4
332.6 K, 29948 kPa, isochoric method	1143.7
335.17 K, 2008.9 kPa, isochoric method	935
335.17 K, 19964 kPa, isochoric method	1094.5
335.18 K, 10007 kPa, isochoric method	1031.6
338.63 K, 3007.2 kPa, isochoric method	934.8
341.49 K, 35032 kPa, isochoric method	1143.1
342.03 K, 3976.9 kPa, isochoric method	934.7
345.34 K, 25002 kPa, isochoric method	1093.8
345.42 K, 4963.5 kPa, isochoric method	934.5
347.2 K, 14893 kPa, isochoric method	1030.8
350.33 K, 40033 kPa, isochoric method	1142.5
353.14 K, 28869 kPa, isochoric method	1093.3
353.15 K, 7224.7 kPa, isochoric method	934
353.15 K, 17361 kPa, isochoric method	1030.5

FC(F)=C(F)C(F)(F)F [hexafluoropropene]
Details	mass density [kg/m3]
208.66 K, 4440.7 kPa, isochoric method	1666.3
212.77 K, 9785.5 kPa, isochoric method	1665.7
217.15 K, 15655 kPa, isochoric method	1665.1
220.5 K, 19878 kPa, isochoric method	1664.7
220.7 K, 1017.1 kPa, isochoric method	1618
221.58 K, 1995.2 kPa, isochoric method	1617.9
222.5 K, 3032.3 kPa, isochoric method	1617.8
223.26 K, 3878.8 kPa, isochoric method	1617.7
224.31 K, 5176.5 kPa, isochoric method	1617.5
224.32 K, 25024 kPa, isochoric method	1664.2
228.25 K, 29978 kPa, isochoric method	1663.7
228.76 K, 10104 kPa, isochoric method	1616.9
232.02 K, 34664 kPa, isochoric method	1663.2
233.17 K, 15012 kPa, isochoric method	1616.4
236.26 K, 39771 kPa, isochoric method	1662.7
237.66 K, 1075 kPa, isochoric method	1560.8
237.67 K, 20020 kPa, isochoric method	1615.8
238.62 K, 2000 kPa, isochoric method	1560.7
239.74 K, 3075.4 kPa, isochoric method	1560.5
240.8 K, 4091.1 kPa, isochoric method	1560.4
241.91 K, 5150.8 kPa, isochoric method	1560.2
241.95 K, 25034 kPa, isochoric method	1615.3
247.02 K, 10041 kPa, isochoric method	1559.6
247.52 K, 30945 kPa, isochoric method	1614.6
251.36 K, 35209 kPa, isochoric method	1614.2
252.41 K, 1004.8 kPa, isochoric method	1507.5
252.51 K, 15276 kPa, isochoric method	1559
253.78 K, 2142.1 kPa, isochoric method	1507.3
254.97 K, 3117.5 kPa, isochoric method	1507.2
255.93 K, 40226 kPa, isochoric method	1613.6
256.1 K, 4061.6 kPa, isochoric method	1507
257.5 K, 5226.1 kPa, isochoric method	1506.9
257.54 K, 20028 kPa, isochoric method	1558.4
262.84 K, 25067 kPa, isochoric method	1557.8
268.15 K, 30042 kPa, isochoric method	1557.2
269.46 K, 1140.2 kPa, isochoric method	1444.5
269.51 K, 15216 kPa, isochoric method	1506
270.71 K, 2007.3 kPa, isochoric method	1444.3
272.14 K, 2994.8 kPa, isochoric method	1444.2
273.5 K, 34978 kPa, isochoric method	1556.7
273.87 K, 4188.8 kPa, isochoric method	1444
275.36 K, 5220.9 kPa, isochoric method	1443.8
275.38 K, 20012 kPa, isochoric method	1505.4
278.75 K, 39847 kPa, isochoric method	1556.1
281.62 K, 25020 kPa, isochoric method	1504.3
282.66 K, 10250 kPa, isochoric method	1443.1
282.84 K, 1039.3 kPa, isochoric method	1388.2
284.56 K, 2050.1 kPa, isochoric method	1388.1
286.25 K, 2995.1 kPa, isochoric method	1387.9
287.65 K, 30072 kPa, isochoric method	1504.2
287.98 K, 4010.4 kPa, isochoric method	1387.7
289.44 K, 14959 kPa, isochoric method	1442.4
289.66 K, 4997.4 kPa, isochoric method	1387.6
294.12 K, 35270 kPa, isochoric method	1503.5
296.97 K, 20036 kPa, isochoric method	1441.7
297.23 K, 942.2 kPa, isochoric method	1322
298.15 K, 2000 kPa, Pycnometric method	1326.6
298.15 K, 10003 kPa, isochoric method	1386.8
299.3 K, 1958.7 kPa, isochoric method	1321.8
300.38 K, 40273 kPa, isochoric method	1502.9
301.47 K, 3021.5 kPa, isochoric method	1321.6
303.44 K, 3963.5 kPa, isochoric method	1321.4
304.43 K, 25120 kPa, isochoric method	1441
305.51 K, 4983.5 kPa, isochoric method	1321.2
307 K, 15256 kPa, isochoric method	1385.9
311.59 K, 29972 kPa, isochoric method	1440.3
315.78 K, 2033.9 kPa, isochoric method	1237.1
315.78 K, 9999.6 kPa, isochoric method	1320.4
315.78 K, 20405 kPa, isochoric method	1385.1
317.54 K, 2708.8 kPa, isochoric method	1237
319.05 K, 35044 kPa, isochoric method	1439.6
320.92 K, 3993.8 kPa, isochoric method	1236.7
323.55 K, 4999.4 kPa, isochoric method	1236.5
324.09 K, 25251 kPa, isochoric method	1384.4
326.52 K, 40028 kPa, isochoric method	1438.9
326.95 K, 15464 kPa, isochoric method	1319.4
332.97 K, 30410 kPa, isochoric method	1383.6
335.66 K, 19726 kPa, isochoric method	1318.7
336.51 K, 9979.8 kPa, isochoric method	1235.5
340.74 K, 34883 kPa, isochoric method	1382.9
345.95 K, 24723 kPa, isochoric method	1317.8
352.67 K, 41719 kPa, isochoric method	1381.9
353.15 K, 16419 kPa, isochoric method	1234.2
353.15 K, 28219 kPa, isochoric method	1317.2
